The record followed here is patent publication US6388105B1, “Benzofuran, indole or benzothiophene 2,4-pentadienoic acid derivatives having selective activity for retinoid X (RXR) receptors” (Allergan Sales, Inc., priority 2001, dated 2002).

As a reminder, the Kd is the constant that tells how readily two partners part at equilibrium. As a reminder, the EC50 is the concentration needed to bring the measured effect to its halfway point.

For experiment [1], the target named is T1, RXRβ (Homo sapiens, UniProt P28702).
T1 construct: expressed in transfected cells
T1 sequence (P28702 1-533): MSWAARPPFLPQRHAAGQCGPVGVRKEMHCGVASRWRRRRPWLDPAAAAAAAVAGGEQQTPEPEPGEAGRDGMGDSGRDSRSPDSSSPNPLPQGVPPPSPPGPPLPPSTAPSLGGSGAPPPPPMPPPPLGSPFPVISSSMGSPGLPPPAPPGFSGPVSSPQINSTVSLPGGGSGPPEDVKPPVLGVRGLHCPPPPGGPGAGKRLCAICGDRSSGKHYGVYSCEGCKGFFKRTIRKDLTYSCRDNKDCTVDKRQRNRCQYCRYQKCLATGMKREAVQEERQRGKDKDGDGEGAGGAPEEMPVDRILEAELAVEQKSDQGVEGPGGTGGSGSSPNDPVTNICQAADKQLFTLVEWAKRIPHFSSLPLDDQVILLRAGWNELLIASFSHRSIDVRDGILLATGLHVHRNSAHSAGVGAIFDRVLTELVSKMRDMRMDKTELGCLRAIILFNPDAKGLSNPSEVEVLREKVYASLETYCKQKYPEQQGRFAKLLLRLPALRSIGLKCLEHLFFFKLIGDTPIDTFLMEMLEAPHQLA
Put plainly: ligand binding assay, RXRβ. Conditions: read-out: Kd (nM) RXR β. From the text:
(§1) A holoreceptor transactivation assay and a ligand binding assay which measure the antagonist/agonist like activity of the compounds of the invention, or their ability to bind to the several retinoid receptor subtypes, respectively, are described in published PCT Application No. WO WO93/11755 (particularly on pages 30-33 and 37-41) published on Jun. 24, 1993, the specification of which is also incorporated herein by reference. A detailed experimental procedure for holoreceptor transactivations has been described by Heyman et al. Cell 68, 397-406, (1992); Allegretto et al. J. Biol. Chem. 268, 26625-26633, and Mangelsdorf et al. The Retinoids: Biology, Chemistry and Medicine, pp 319-349, Raven Press Ltd., New York, which are expressly incorporated herein by reference. The results obtained in this assay are expressed in EC50 numbers, as they are also in the chimeric receptor transactivation assay. The results of ligand binding assay are expressed in Kd numbers. (See Cheng et al. Biochemical Pharmacology Vol. 22 pp 3099-3108, expressly incorporated herein by reference.)
(§2) Table 1 discloses the activity of certain exemplary compounds of the invention in the above-described holoreceptor transactivation assay and a ligand binding assays. Particularly, the transactivation data pertaining to RAR receptors were obtained in the chimeric assay, and the data pertaining to transactivation of RXR receptors were obtained in the holoreceptor transactivation assay.

In experiment [2] the target is T2, RXRγ (Homo sapiens, UniProt P48443).
T2 construct: expressed in transfected cells
T2 sequence (P48443 1-463): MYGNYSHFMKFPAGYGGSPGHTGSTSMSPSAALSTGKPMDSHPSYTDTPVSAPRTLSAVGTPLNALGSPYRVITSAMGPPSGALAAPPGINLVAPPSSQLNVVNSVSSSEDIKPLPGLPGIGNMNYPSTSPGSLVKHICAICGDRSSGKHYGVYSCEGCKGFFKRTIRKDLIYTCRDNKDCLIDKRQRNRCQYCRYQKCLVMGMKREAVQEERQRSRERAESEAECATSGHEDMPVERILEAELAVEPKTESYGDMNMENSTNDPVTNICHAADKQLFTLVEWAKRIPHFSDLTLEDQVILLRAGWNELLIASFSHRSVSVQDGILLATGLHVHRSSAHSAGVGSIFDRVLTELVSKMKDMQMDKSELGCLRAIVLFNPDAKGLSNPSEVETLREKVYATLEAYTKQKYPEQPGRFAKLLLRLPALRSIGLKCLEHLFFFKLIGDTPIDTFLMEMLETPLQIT
As to the kind of experiment: ligand binding assay, RXRγ. Conditions: read-out: Kd (nM) RXR γ.
From the text: as §1, §2

The target in experiment [3] is T1, RXRβ. As to the kind of experiment: holoreceptor transactivation assay, RXRβ. The format is cell-based. Conditions: for EC50: read-out: EC50 (nM) RXR β.
From the text: as §1, §2

Experiment [4] concerns the target T3, RXRα (Homo sapiens, UniProt P19793).
T3 construct: expressed in transfected cells
T3 sequence (P19793 1-462): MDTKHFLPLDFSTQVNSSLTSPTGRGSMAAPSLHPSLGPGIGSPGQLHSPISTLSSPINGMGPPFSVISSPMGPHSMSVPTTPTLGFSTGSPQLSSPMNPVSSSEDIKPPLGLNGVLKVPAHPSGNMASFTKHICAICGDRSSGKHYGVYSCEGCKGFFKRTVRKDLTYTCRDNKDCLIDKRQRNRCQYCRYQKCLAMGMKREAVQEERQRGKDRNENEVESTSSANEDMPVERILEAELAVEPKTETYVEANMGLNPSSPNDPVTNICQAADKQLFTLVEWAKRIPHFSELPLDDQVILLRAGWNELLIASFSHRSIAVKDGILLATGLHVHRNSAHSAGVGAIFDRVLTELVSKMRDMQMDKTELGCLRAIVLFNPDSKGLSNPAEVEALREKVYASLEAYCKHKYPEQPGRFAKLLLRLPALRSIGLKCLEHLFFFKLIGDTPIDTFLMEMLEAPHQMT
As to the kind of experiment: holoreceptor transactivation assay, RXRα. Conditions: for EC50: read-out: EC50 (nM) RXR α. In kind it is cell-based.
From the text: as §1, §2

For experiment [5], the target named is T2, RXRγ. As to the kind of experiment: holoreceptor transactivation assay, RXRγ. The format is cell-based. Conditions: for EC50: read-out: EC50 (nM) RXR γ.
From the text: as §1, §2

The target in experiment [6] is T3, RXRα. Put plainly: ligand binding assay, RXRα. Conditions: read-out: Kd (nM) RXR α.
From the text: as §1, §2

Take `CCc1oc2ccc([C@@]3(C)C[C@H]3/C=C/C(C)=C/C(=O)O)cc2c1C(C)(C)C` [Compound 12, 3-Methyl-6(S),7(S)-methano-7-(3-t-butyl-2-ethyl-benzofur-5-yl)-octa-2(E),4(E)-dienoic acid]: the values for the Kd on RXRβ [1], on RXRγ [2] and on RXRα [6] were 20 nM, 40 nM and 11 nM, respectively. In addition, at RXRβ [3], the “% Eff RXR β” value was found to be 150%. Besides, the EC50 on RXRβ [3] worked out at 17 nM; at RXRα [4], 1.5 nM; on RXRγ [5], 2.9 nM. Further, the “% Eff RXR α” value on RXRα [4] stood at 144%. Also, the “% Eff RXR γ” value on RXRγ [5] came out at 131%.
For the compound `CCc1oc2ccc([C@@]3(C)C[C@H]3/C=C/C(C)=C/C(=O)O)cc2c1CC` [Compound 20, 3-Methyl-6(S),7(S)-methano-7-(2,3-di-ethyl-benzofur-5-yl)-octa-2(E),4(E)-dienoic acid], the Kd at RXRβ [1] was 288 nM; at RXRγ [2], 256 nM; at RXRα [6], 71 nM. Also, the “% Eff RXR β” value at RXRβ [3] is on record as 90%. For the same compound, the EC50 on RXRβ [3] is 44 nM; on RXRα [4], 6 nM; on RXRγ [5] it was 12 nM. Also, the “% Eff RXR α” value on RXRα [4] came out at 130%. Further, the “% Eff RXR γ” value at RXRγ [5] amounted to 90%.
As to `CCc1oc2ccc([C@@]3(C)C[C@H]3/C=C/C(C)=C/C(=O)O)cc2c1C(C)C` [Compound 28, 3-Methyl-6(S),7(S)-methano-7-(2-ethyl-3-iso-propyl-benzofur-5-yl)-octa-2(E),4(E)-dienoic acid], the Kd on RXRβ [1] turned out to be 17 nM; at RXRγ [2], 48 nM; at RXRα [6] it was 6.8 nM. Also, the “% Eff RXR β” value on RXRβ [3] turned out to be 116%. The EC50 at RXRβ [3] came out at 4.3 nM; on RXRα [4] it was 0.7 nM; at RXRγ [5] it was 0.8 nM. Further, the “% Eff RXR α” value at RXRα [4] was determined as 102%. For the same compound, the “% Eff RXR γ” value on RXRγ [5] was determined as 110%.
Regarding `CCCCCc1oc2ccc([C@@]3(C)C[C@H]3/C=C/C(C)=C/C(=O)O)cc2c1C(C)(C)C` [Compound 38, 3-Methyl-6(S),7(S)-methano-7-(3-t-butyl-2-n-pentyl-benzofur-5-yl)-octa-2(E),4(E)-dienoic acid], the results for the Kd at RXRβ [1], at RXRγ [2] and at RXRα [6] were 98 nM, more than 1000 nM and 19.5 nM, respectively. Further, the “% Eff RXR β” value on RXRβ [3] is 96%. In addition, the figures for the EC50 at RXRβ [3], on RXRα [4] and on RXRγ [5] were 9.3 nM, 2.2 nM and 2.6 nM, respectively. The “% Eff RXR α” value on RXRα [4] came to 100%. Further, the “% Eff RXR γ” value at RXRγ [5] amounted to 101%.
